Assay results published in PubChem BioAssay AID1963874 (Molecular Pharmacology Branch, DTP, NCI, 2024).

System: 253994-281-T-J1-PDC KRAS-mutant spheroids with HUVEC/MSC, viability
Assay: Anticancer human tumor 253994-281-T-J1-PDC patient-derived colorectal carcinoma cell line growth inhibition [KRAS2]
Conditions: for IC50: curve of first compound; for viability, T/C: stronger effect = lower value
How it was run: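 Combination screen of spheroid viability in tumor-cell co-cultures with endothelial (HUVEC) and mesenchymal stem cell stroma. Each agent was tested in half-log dilutions, topping at clinical Cmax or at 10 microM without a known Cmax.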

[1] = second compound 0.1 µM, first compound 0.0316 µM
[2] = second compound 0.1 µM, first compound 0.1 µM
[3] = second compound 0.1 µM, first compound 0.316 µM
[4] = second compound 0.1 µM, first compound 1 µM
[5] = second compound 0.1 µM, first compound 3.16 µM
[6] = second compound 0.1 µM, first compound 10 µM
[7] = second compound 0.316 µM, first compound 0.0316 µM
[8] = second compound 0.316 µM, first compound 0.1 µM
[9] = second compound 0.316 µM, first compound 0.316 µM
[10] = second compound 0.316 µM, first compound 1 µM
[11] = second compound 0.316 µM, first compound 3.16 µM
[12] = second compound 0.316 µM, first compound 10 µM
[13] = second compound 1 µM, first compound 0.0316 µM
[14] = second compound 1 µM, first compound 0.1 µM
[15] = second compound 1 µM, first compound 0.316 µM
[16] = second compound 1 µM, first compound 1 µM
[17] = second compound 1 µM, first compound 3.16 µM
[18] = second compound 1 µM, first compound 10 µM
[19] = second compound 3.16 µM, first compound 0.0316 µM
[20] = second compound 3.16 µM, first compound 0.1 µM
[21] = second compound 3.16 µM, first compound 0.316 µM
[22] = second compound 3.16 µM, first compound 1 µM
[23] = second compound 3.16 µM, first compound 3.16 µM
[24] = second compound 3.16 µM, first compound 10 µM
[25] = second compound 10 µM, first compound 0.0316 µM
[26] = second compound 10 µM, first compound 0.1 µM
[27] = second compound 10 µM, first compound 0.316 µM
[28] = second compound 10 µM, first compound 1 µM
[29] = second compound 10 µM, first compound 3.16 µM
[30] = second compound 10 µM, first compound 10 µM
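Note: spheroids exposed to agents for seven days before readout.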
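Throughout, for viability, T/C: percent of DMSO vehicle control viability.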

Structure (SMILES)	IC50 (second compound 0.1 µM) [µM]	IC50 (second compound 0.316 µM) [µM]	IC50 (second compound 1 µM) [µM]	IC50 (second compound 3.16 µM) [µM]	IC50 (second compound 10 µM) [µM]	viability, T/C [1] [%]	viability, T/C [2] [%]	viability, T/C [3] [%]	viability, T/C [4] [%]	viability, T/C [5] [%]	viability, T/C [6] [%]	viability, T/C [7] [%]	viability, T/C [8] [%]	viability, T/C [9] [%]	viability, T/C [10] [%]	viability, T/C [11] [%]	viability, T/C [12] [%]	viability, T/C [13] [%]	viability, T/C [14] [%]	viability, T/C [15] [%]	other results
COc1cc(Nc2ncc3c(n2)-c2ccc(Cl)cc2C(c2c(F)cccc2OC)=NC3)ccc1C(=O)O + COc1cc2nc(C)nc(NC(C)c3cc(N)cc(C(F)(F)F)c3)c2cc1OC1CCOC1	< 0.0316	< 0.0316	< 0.0316	< 0.0316	< 0.0316	63.4	29.7	26.6	35.2	39.9	38.6	51.4	26.8	26.5	33.1	35.2	33.6	49	34.3	22.4	viability, T/C [16]: 27.5%; viability, T/C [17]: 31%; viability, T/C [18]: 34.5%; viability, T/C [19]: 50.1%; viability, T/C [20]: 30%; viability, T/C [21]: 26%; viability, T/C [22]: 29%; viability, T/C [23]: 41.7%; viability, T/C [24]: 45.1%; viability, T/C [25]: 38.3%; viability, T/C [26]: 31.4%; viability, T/C [27]: 25.7%; viability, T/C [28]: 31.6%; viability, T/C [29]: 35.7%; viability, T/C [30]: 29.1%
COc1cc2nccc(Oc3ccc(NC(=O)C4(C(=O)Nc5ccc(F)cc5)CC4)cc3)c2cc1OC + COc1cc2nc(C)nc(NC(C)c3cc(N)cc(C(F)(F)F)c3)c2cc1OC1CCOC1	> 10	> 10	5.93	4.91	5.18	99.1	101	118	89.4	87.6	52.2	106	110	113	109	92.2	59.3	101	106	101	viability, T/C [16]: 92.5%; viability, T/C [17]: 76.4%; viability, T/C [18]: 28.3%; viability, T/C [19]: 99.6%; viability, T/C [20]: 97.3%; viability, T/C [21]: 109%; viability, T/C [22]: 104%; viability, T/C [23]: 70.2%; viability, T/C [24]: 17.7%; viability, T/C [25]: 93.8%; viability, T/C [26]: 89.1%; viability, T/C [27]: 86.5%; viability, T/C [28]: 82.3%; viability, T/C [29]: 81.7%; viability, T/C [30]: 7.51%
